The subject of data set [1] is common mosquitoes (Culex pipiens pallens). Kind of data set: Biological Test 8: knock-down of mosquitoes by mosquito-coil. Format: in vivo. The following applies: 1.0 g of 0.3% mosquito-coil in 0.34 m^3 chamber; after 15 minutes. Here is the method:
Mosquito-coil containing the present compound in an amount of 0.3% was prepared according to the formulation example 10 for the present compounds. Ten female common mosquitoes (Culex pipiens pallens) were left in a glass chamber (70 cm×70 cm×70 cm: 0.34 m^3) and 1.0 g of 0.3% mosquito-coil having both ends lit was placed in the glass chamber. After 15 minutes, the rate of knocked-down mosquitoes was examined.

A short description of data set [2]: Toxicity Test: acute oral LD50. To be noted: rat, in vivo, corn oil, fasted male 7-week old rats, after 7 days. The protocol:
After subjecting the rats to a twenty-hour fasting, 0.1 ml of the diluted solution per 10 g weight was forcibly applied into the stomach of four male 7-week old rats. The rats were given food and water four hours after the application and thereafter regularly fed and watered, and kept in a cage. After 7 days, the mortality was examined for the rats and LD50 was calculated.

Data set [3] deals with webbing clothes moth (Tineola bisselliella). Put plainly: Biological Test 12: topical application to larvae of webbing clothes moth, mortality and fabric damage. Format: in vivo. The protocol:
Each of the present compounds diluted with acetone to a predetermined concentration was applied to ten middle instar larvae of webbing clothes moth (Tineola bisselliella) at the central part of the back so as to give the active ingredient in a dose of 3 μg/insect. A wool muslin fabric (2 cm×2 cm in size) was given to the webbing clothes moths as the food. After 7 days, the mortality and the degree of damage of the wool muslin fabric by the moths were examined (two replicate).

The test system of data set [4] is tobacco cutworm (Spodoptera litura). Put plainly: Biological Test 1: mortality of larvae on impregnated artificial bait. Format: in vivo. To be noted: 144 h, read-out: mortality of the larvae. The protocol: Emulsifiable concentrates were prepared for each of the present compounds according to the formulation example 1. Thirteen grams of artificial bait for tobacco cutworm (Spodoptera litura) were placed in a polyethylene cup (diameter: 11 cm) and impregnated with 2 ml of the 500 ppm emulsion prepared by diluting the emulsifiable concentrates with water. Ten 4-instar larvae of Spodoptera litura were put in the polyethylene cup. After 6 days, the mortality of the larvae was examined.

For the compound `Cc1ccc(COC(=O)[C@@H]2[C@H](/C=C(\Cl)C(F)(F)F)C2(C)C)o1` (relative stereo) [Compound (1), 5-methyl-2-furfuryl (1RS,cis)-3-(Z-2-chloro-3,3,3-trifluoroprop-1-enyl)-2,2-dimethylcyclopropanecarboxylate], the “rate of knocked-down mosquitoes” value in data set [1] is recorded as 100%. This compound also yielded a median lethal dose (LD50) at 168 h in data set [2] of 300 mg/kg. Moreover, the “degree of damage of the wool muslin fabric” value in data set [3] (3 μg/insect, after 7 days) is given as “no damage”. Moreover, the mortality at 0.003 mg in data set [3] (Tineola bisselliella, 168 h) is 100%. The mortality at 500 µg/mL in data set [4] worked out at 100%.

The term LD50 denotes the dose expected to kill half of the subjects tested. Read a low LD50 as a more toxic substance. As a reminder, the mortality is the percentage killed.

The record behind these values is patent US6048892A, “Ester compound pesticide containing thereof” (Sumitomo Chemical Company, Limited, priority 1999, dated 2000).
